Key:
[1] = test system: SPI1 type III protein secretion system (SopE-Bla secretion); assay: Primary assay: Type III protein secretion of the chimeric SopE-Bla polypeptide by Salmonella enterica (nitrocefin hydrolysis); type: cell-based; conditions: read-out: SopE IC50(uM)
Excerpt: Primary assay: Type III protein secretion of the chimeric SopÉ-Bla polypeptide by Salmonella enterica. This procedure is a cell-based assay that measures the type III-dependent secretion by Salmonella enterica of a plasmid-encoded chimeric polypeptide whose synthesis can be regulated, and which is endowed with an enzymatic activity that can be monitored calorimetrically by hydrolysis of a substrate that is unable to penetrate into the bacterial cytoplasm within the time constraints of the reaction. Thus, the colorimetric reaction is not influenced by SopÉ-Bla polypeptide in the bacterial cytoplasm. Instead, it effectively measures the amount of polypeptide that has been secreted from the S. enterica cytoplasm to the extracellular medium via type III system protein secretion.
The SopÉ-Bla recombinant polypeptide consists of two functionally distinct domains spliced together. The N-terminus domain is encoded by a polynucleotide region specifying the signal for type III secretion of the SopE polypeptide of S. enterica, an effector of the SPI1 type III protein secretion system. The C-terminus domain of SopÉ-Bla consists of a 263 amino acid peptide sequence that corresponds to the TEM-1 β-lactamase expressed by plasmid pBR322 but without its N-terminal signal sequence. The TEM-1 β-lactamase part of the SopÉ-Bla chimeric polypeptide is used as a reporter enzyme. It is capable of hydrolyzing nitrocefin resulting in a product whose accumulation can be monitored by colorimetric detection. The secretion of the SopÉ-Bla chimeric polypeptide from the cytoplasm to the extracellular medium is dependent on type III protein secretion.
For this procedure, cells grown under conditions known to favor a functional SPI1 secretion system are induced for expression of the SopÉ-Bla protein and grown either in the presence or in the absence of putative inhibitors for determined time. Nitrocefin is then added to the various cultures and its hydrolysis are used for quantitation. An inhibitor of Type III protein secretion is generally a compound that reduces the signal of the enzymatic reaction by decreasing the amount of SopÉ-Bla secreted into the extracellular medium.

[2] = test system: SPI1 type III protein secretion system (SipB secretion); assay: Secondary assay: Type III-dependent protein secretion of the SipB polypeptide by S. enterica (immunoblot); type: cell-based; conditions: Salmonella enterica, read-out: SipB IC50(uM)
Method: Secondary assay: Type III-dependent protein secretion of the SipB polypeptide by S. enterica. The SipB protein of S. enterica is another effector of the SPI1 type III protein secretion system from S. enterica. In this cell-based procedure, the Type III-dependent secretion of SipB from the bacterial cytoplasm to the extracellular medium was measured through its reactivity with a cognate mouse monoclonal.
Salmonella enterica cells growing either in the presence or in the absence of inhibitors are induced for the production of SipB. Following an established period of growth the cells are sedimented and the amount of SipB present in the supernatant is quantified with a scanning imager following application of immunoblot techniques. Detection may employ an anti-SipB mouse monoclonal antibody (e.g., obtained from Jorge Galan, SUNY at Stony Brook, N.Y.) followed by treatment with commercially available sheep anti-mouse polyclonal antibody conjugated with horseradish peroxidase. Thereafter the membrane is treated with a peroxidase chemiluminescent substrate and exposed to film for an appropriate exposure time. Inhibition may be measured relative to untreated controls.

Compound | IC50 [1] [µM] | IC50 [2] [µM]
O=C(Nc1cc(-c2cc3ccccc3s2)cn(C(Cc2ccc(Cl)cc2)C(=O)O)c1=O)c1ccc(C(F)(F)F)cc1 (stereo not shown) [Compound 26, 2-[5-Benzo[b]thiophen-2-yl-2-oxo-3-(4-trifluoromethylbenzoylamino)-2H-pyridin-1-yl]-3-(4-chlorophenyl)propionic acid] | 2.4 | > 100
CC(C)Oc1ccc(-c2cc(NC(=O)c3ccc(C(F)(F)F)cc3)c(=O)n([C@@H](COCc3ccccc3)C(=O)O)c2)cc1 [Compound 12, (S)-3-Benzyloxy-2-[5-(4-isopropoxyphenyl)-2-oxo-3-(4-trifluoromethyl-benzoylamino)-2H-pyridin-1-yl]propionic acid] | 67.2 | > 100
O=C(Nc1cc(-c2ccc(C(F)(F)F)cc2)cn(C(Cc2ccc(Cl)cc2)C(=O)O)c1=O)c1ccc(Oc2ccccc2)cc1 (stereo not shown) [Compound 54, 3-(4-Chlorophenyl)-2-[2-oxo-3-(4-phenoxybenzoylamino)-5-(4-trifluoromethyl-phenyl)-2H-pyridin-1-yl]propionic acid] | 16.6 | > 100
O=C(Nc1cc(-c2ccc3ccccc3c2)cn([C@@H](Cc2ccccc2)C(=O)O)c1=O)c1ccc(C(F)(F)F)cc1 [Compound 3, (S)-2-[5-Naphthalen-2-yl-2-oxo-3-(4-trifluoromethylbenzoylamino)-2H-pyridin-1-yl]-3-phenylpropionic acid] | 28.5 | > 100
O=C(Nc1cc(C#Cc2ccccc2)cn(C(Cc2ccc(Cl)cc2)C(=O)O)c1=O)c1ccc(C(F)(F)F)cc1 (stereo not shown) [Compound 31, 3-(4-Chlorophenyl)-2-[2-oxo-5-phenylethynyl-3-(4-trifluoromethylbenzoylamino)-2H-pyridin-1-yl]propionic acid] | 34.2 | > 100
O=C(Nc1cc(-c2ccccc2)cn(C(Cc2ccc(Cl)cc2)C(=O)O)c1=O)c1ccc(-c2ccccc2)cc1 (stereo not shown) [Compound 32, 2-{3-[(Biphenyl-4-carbonyl)amino]-2-oxo-5-phenyl-2H-pyridin-1-yl}-3-(4-chloro-phenyl)propionic acid] | 2.3 | > 100
O=C(Nc1cc(-c2cccc3ccccc23)cn(C(Cc2ccc(Cl)cc2)C(=O)O)c1=O)c1ccc(C(F)(F)F)cc1 (stereo not shown) [Compound 19, 3-(4-Chlorophenyl)-2-[5-naphthalen-1-yl-2-oxo-3-(4-trifluoromethyl-benzoylamino)-2H -1-yl]propionic acid] | 5.5 | > 100
O=C(Nc1cc(-c2ccc(O)cc2)cn(C(Cc2ccc(Cl)cc2)C(=O)O)c1=O)c1ccc(C(F)(F)F)cc1 (stereo not shown) [Compound 29, 3-(4-Chlorophenyl)-2-[5-(4-hydroxyphenyl)-2-oxo-3-(4-trifluoromethyl-benzoylamino)-2H-pyridin-1-yl]propionic acid] | 31.8 | > 100
O=C(Nc1cc(-c2ccc(Oc3ccccc3)cc2)cn(C(Cc2ccc(Cl)cc2)C(=O)O)c1=O)c1ccc(C(F)(F)F)cc1 (stereo not shown) [Compound 18, 3-(4-Chlorophenyl)-2-[2-oxo-5-(4-phenoxyphenyl)-3-(4-trifluoromethyl-benzoylamino)-2H-pyridin-1-yl]propionic acid] | 2.3 | > 100
O=C(Nc1cc(-c2cccc3ccccc23)cn(C(Cc2ccc(Cl)cc2)C(=O)O)c1=O)c1ccc(-c2ccccc2)cc1 (stereo not shown) [Compound 46, 2-{3-[(Biphenyl-4-carbonyl)amino]-5-naphthalen-1-yl-2-oxo-2H-pyridin-1-yl}-3-(4-chlorophenyl)propionic acid] | 1.1 | > 100
O=C(Nc1cc(-c2cncnc2)cn([C@@H](Cc2ccccc2)C(=O)O)c1=O)c1ccc(C(F)(F)F)cc1 [Compound 7, (S)-2-[2-Oxo-5-pyrimidin-5-yl-3-(4-trifluoromethylbenzoylamino)-2H-pyridin-1-yl]-3-phenylpropionic acid] | 82.3 | > 100
CN(C)c1ccc(-c2cc(NC(=O)c3ccc(C(F)(F)F)cc3)c(=O)n([C@@H](COCc3ccccc3)C(=O)O)c2)cc1 [Compound 11, (S)-3-Benzyloxy-2-[5-(4-dimethylaminophenyl)-2-oxo-3-(4-trifluoromethyl-benzoylamino)-2H-pyridin-1-yl]propionic acid] | 76 | > 100
O=C(Nc1cc(-c2cc(F)cc(F)c2)cn(C(Cc2ccc(Cl)cc2)C(=O)O)c1=O)c1ccc(-c2ccccc2)cc1 (stereo not shown) [Compound 36, [3-[(Biphenyl-4-carbonyl)amino]-5-(3,5-difluorophenyl)-2-oxo-2H-pyridin-1-yl]-3-(4-chlorophenyl)propionic acid] | 2.4 | > 100
O=C(Nc1cc(-c2cccc(C(F)(F)F)c2)cn(C(Cc2ccc(Cl)cc2)C(=O)O)c1=O)c1ccc(Oc2ccccc2)cc1 (stereo not shown) [Compound 23, 3-(4-Chlorophenyl)-2-[2-oxo-3-(4-phenoxybenzoylamino)-5-(3-trifluoromethyl-phenyl)-2H-pyridin-1-yl]propionic acid] | 9.8 | > 100
O=C(Nc1cc(-c2cccc3ccccc23)cn(C(CSCc2ccccc2)C(=O)O)c1=O)c1ccc(C(F)(F)F)cc1 (stereo in doubt) [Compound 16, (R)-3-Benzylsulfanyl-2-[5-naphthalen-1-yl-2-oxo-3-(4-trifluoromethyl-benzoylamino)-2H-pyridin-1-yl]propionic acid] | 6.4 | > 100
O=C(Nc1cc(-c2ccc(-c3ccccc3)cc2)cn([C@@H](Cc2ccccc2)C(=O)O)c1=O)c1ccc(C(F)(F)F)cc1 [Compound 2, (S)-2-[5-Biphenyl-4-yl-2-oxo-3-(4-trifluoromethylbenzoylamino)-2H-pyridin-1-yl]-3-phenylpropionic acid] | 9.3 | > 100
O=C(Nc1cc(-c2cc3ccccc3o2)cn(C(Cc2ccc(Cl)cc2)C(=O)O)c1=O)c1ccc(C(F)(F)F)cc1 (stereo not shown) [Compound 25, 2-[5-Benzofuran-2-yl-2-oxo-3-(4-trifluoromethylbenzoylamino)-2H-pyridin-1-yl]-3-(4-chlorophenyl)propionic acid] | 3.7 | > 100
O=C(Nc1cc(-c2ccc(Cl)cc2)cn(C(Cc2ccc(Cl)cc2)C(=O)O)c1=O)c1ccc(Oc2ccccc2)cc1 (stereo not shown) [Compound 52, 3-(4-Chlorophenyl)-2-[5-(4-chlorophenyl)-2-oxo-3-(4-phenoxybenzoylamino)-2H-pyridin 1-yl]propionic acid] | 9 | > 100
O=C(Nc1cc(-c2ccc(Br)cc2)cn(C(Cc2ccc(Cl)cc2)C(=O)O)c1=O)c1ccc(-c2ccccc2)cc1 (stereo not shown) [Compound 37, 2-[3-[(Biphenyl-4-carbonyl)amino]-5-(4-bromophenyl)-2-oxo-2H-pyridin-1-yl]-3-(4-chlorophenyl)propionic acid] | 1.5 | > 100
CC(=O)Nc1cccc(-c2cc(NC(=O)c3ccc(C(F)(F)F)cc3)c(=O)n(C(Cc3ccc(Cl)cc3)C(=O)O)c2)c1 (stereo not shown) [Compound 28, 2-[5-(3-Acetylaminophenyl)-2-oxo-3-(4-trifluoromethylbenzoylamino)-2H-pyridin-1-yl]-3-(4-chlorophenyl)propionic acid] | 52.4 | > 100
CC(=O)c1ccc(-c2cc(NC(=O)c3ccc(C(F)(F)F)cc3)c(=O)n(C(Cc3ccc(Cl)cc3)C(=O)O)c2)s1 (stereo not shown) [Compound 27, 2-[5-(5-Acetylthiophen-2-yl)-2-oxo-3-(4-trifluoromethylbenzoylamino)-2H-pyridin-1-yl]-3-(4-chlorophenyl)propionic acid] | 34.2 | > 100
O=C(Nc1cc(-c2ccc3ccccc3c2)cn([C@@H](COCc2ccccc2)C(=O)O)c1=O)c1ccc(C(F)(F)F)cc1 [Compound 13, (S)-3-Benzyloxy-2-[5-naphthalen-2-yl-2-oxo-3-(4-trifluoromethylbenzoylamino)-2H-pyridin-1-yl]propionic acid] | 48 | > 100
O=C(Nc1cc(-c2ccc(-c3ccccc3)cc2)cn(C(Cc2ccc(Cl)cc2)C(=O)O)c1=O)c1ccc(C(F)(F)F)cc1 (stereo not shown) [Compound 17, 2-[5-Biphenyl-4-yl-2-oxo-3-(4-trifluoromethylbenzoylamino)-2H-pyridin-1-yl]-3-(4-chlorophenyl)propionic acid] | 2 | > 100
